Experimental data reported in patent publication US9113629B2, “4-amino-6-(4-substituted-phenyl)-picolinates and 6-amino-2-(4-substituted-phenyl)-pyrimidine-4-carboxylates and their use as herbicides” (DOW AGROSCIENCES LLC, priority 2013, dated 2015).

melting point [°C] | Compound
98.9 to 101.6 | COC(=O)c1nc(-c2ccc(Br)cc2F)cc(N)c1Cl [Compound 93]
158.5 to 159.5 | Cc1c(-c2ccc(OC(F)F)cc2)nc(C(=O)O)c(Cl)c1N [Compound 94, 4-Amino-3-chloro-6-(4-(difluoromethoxy)phenyl)-5-methylpicolinic acid]
145 to 147 | COC(=O)c1nc(-c2cc(F)c(I)cc2F)c(Br)c(N)c1Cl [Compound 100]
193 to 194 | COC(=O)c1nc(-c2cc(F)c(I)cc2F)nc(N)c1OC [Compound 101]
134 to 137 | COC(=O)c1nc(-c2ccc(Br)c(F)c2)c(C)c(N)c1Cl [Compound 112, Methyl 4-amino-6-(4-bromo-3-fluorophenyl)-3-chloro-5-methylpicolinate]
179.5 to 181 | Cc1c(-c2ccc(I)cc2)nc(C(=O)O)c(Cl)c1N [Compound 116, 4-Amino-3-chloro-6-(4-iodophenyl)-5-methylpicolinic acid]
131 to 132 | COc1c(N)nc(-c2cc(F)c(I)cc2F)nc1C(=O)O [Compound 119]
158.9 to 161.2 | C#Cc1ccc(-c2cc(N)c(Cl)c(C(=O)OC)n2)cc1 [Compound 126]
174 to 176 | COC(=O)c1nc(-c2cc(F)c(Br)cc2F)cc(N)c1Cl [Compound 127, methyl 4-amino-6-(4-bromo-2,5-difluorophenyl)-3-chloropicolinate]
173 to 175 | Nc1cc(-c2cc(F)c(I)cc2F)nc(C(=O)O)c1Cl [Compound 131]
115 to 118 | COC(=O)c1nc(-c2ccc(I)cc2)c(C)c(N)c1Cl [Compound 136, methyl 4-amino-3-chloro-6-(4-iodophenyl)-5-methylpicolinate]
177 to 180 | COC(=O)c1nc(-c2ccc(C#N)c(F)c2)c(C)c(N)c1Cl [Compound 155, Methyl 4-amino-3-chloro-6-(4-cyano-3-fluorophenyl)-5-methylpicolinate]
192 to 195 | COC(=O)c1nc(-c2ccc(C(N)=O)cc2)c(F)c(N)c1Cl [Compound 192]
143.5 to 144.5 | COC(=O)c1nc(-c2cc(F)c(F)cc2F)c(F)c(N)c1Cl [Compound 200, Methyl 4-amino-3-chloro-5-fluoro-6-(2,4,5-trifluorophenyl)picolinate]
